Holding throughout (type): functional
What all share (settings): route intraperitoneal

The test system of assay [1] is Mus musculus. Kind of assay: Increase in yohombine-induced mortality in Kunming Mus musculus (mouse) at 30 mg/kg, ip administered for 1 hr prior to yohombine challenge measured after 24 hr (reference value: 20%).
For assay [2], the system named is Mus musculus. Description: Antidepressant activity in Kunming Mus musculus (mouse) assessed as immobility time at 10 mg/kg, ip administered 30 min prior to testing measured after 2 to 6 min by forced swimming test (reference value: 116.7 +/- 12.3 secs).
Assay [3] concerns Mus musculus. Description: Antidepressant activity in Kunming Mus musculus (mouse) assessed as immobility time at 10 mg/kg, ip administered 30 min prior to testing measured after 2 to 6 min by tail suspension test (reference value: 130.5 +/- 9.6 secs).

The values that follow come from ChEMBL document CHEMBL3045418, “Design, synthesis and antidepressant activity evaluation 2-hydroxy-4,6-diisoprenyloxychalcone derivatives” (2013).

Molecules are shown by their SMILES.

By mortality is commonly meant the percentage killed. Read a low mortality as a weak lethal effect.

As for `CN(C)CCCN1c2ccccc2CCc2ccc(Cl)cc21` [CLOMIPRAMINE], the mortality at 30 mg/kg in the assay with Mus musculus [1] was found to be 80%.

With `CNCCC(Oc1ccc(C(F)(F)F)cc1)c1ccccc1` (stereo not drawn) [FLUOXETINE], the Time in the assay with Mus musculus [2] was determined as 68.6 s; in the assay with Mus musculus [3], 75.6 s.
